The results in this text go back to ChEMBL document CHEMBL1201862, “PubChem BioAssay data set” (2004).

Where a name gives a salt, the structure may show the parent alone. Calls of active or inactive are those of the source.

Experiment [1] deals with Paired box protein Pax-8 (Homo sapiens, UniProt Q06710). Nature of the experiment: PAX8 transcriptional activity inhibition in RMG-I – RMG-I cells, luciferase, cherry-pick, dose response (AID 687027).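 Note: luciferase reporter driven by Pax8 target thyroperoxidase promoter measured by SteadyGlo luminescence.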 Type of experiment: functional, cell-based.
Paired box protein Pax-8, sequence (Q06710 whole entry): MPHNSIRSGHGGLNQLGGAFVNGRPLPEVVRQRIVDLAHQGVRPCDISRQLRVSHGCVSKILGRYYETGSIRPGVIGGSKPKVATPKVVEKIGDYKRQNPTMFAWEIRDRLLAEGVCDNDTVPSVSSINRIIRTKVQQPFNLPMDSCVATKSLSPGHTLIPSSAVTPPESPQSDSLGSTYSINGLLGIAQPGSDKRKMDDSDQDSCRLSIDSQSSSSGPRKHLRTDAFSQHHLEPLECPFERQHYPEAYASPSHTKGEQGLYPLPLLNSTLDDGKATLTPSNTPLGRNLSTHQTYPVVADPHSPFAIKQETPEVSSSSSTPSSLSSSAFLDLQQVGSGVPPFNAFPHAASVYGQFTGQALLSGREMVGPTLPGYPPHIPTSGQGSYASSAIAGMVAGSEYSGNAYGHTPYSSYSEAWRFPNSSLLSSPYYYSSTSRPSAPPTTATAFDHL
Experiment [2] in a line: A2780 cell killing – plate reader, dry powder samples, cytotoxicity control, dose response (AID 743046). Type of experiment: functional, cell-based.
Experiment [3] is described as follows: OVCAR-3 cell viability loss – plate reader, dry powder samples, PAX8 inhibitor project, dose response (AID 743044). Type of experiment: functional, cell-based.
Experiment [4] can be described thus: IGROV1 cell killing – plate reader, dry powder samples, PAX8 inhibitor project, dose response (AID 743043). The experiment is classed as functional, cell-based. The note with it: IGROV-1.
Experiment [5] in a line: general cell-killing toxicity readout – plate reader, dry powder samples, cytotoxicity control for PAX8 inhibitor project, dose response (AID 743021). The experiment is classed as functional, cell-based.
The nature of experiment [6]: OVCAR8 cell viability loss – plate reader, dry powder samples, PAX8 project, dose response (AID 743197). The experiment is classed as functional, cell-based. The following applies: OVCAR-8.
A short description of experiment [7]: inhibitors acting on PAX2 in cells – cell-based, plate reader, dry powder samples, selectivity assay for PAX8 inhibitor project, dose response (AID 743048).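 Note: HEK293 cells carrying a WT1 promoter luciferase reporter driven by expressed Pax2; potency is for inhibition of Pax2 driven reporter signal.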 Type of experiment: functional.
The nature of experiment [8]: COV362 cell viability loss – plate reader, dry powder, SA12, cytotoxicity control for PAX8 inhibitor project, dose response (AID 743144). The experiment is classed as functional, cell-based.
Experiment [9] can be described thus: PAX5 cellular inhibition readout – cell-based, plate reader, dry powder samples, selectivity assay for PAX8 inhibitor project, dose response (AID 743047).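 Note: HEK293 cells carrying a Pax5 driven CD19 promoter luciferase reporter; potency of inhibitors that lower reporter luminescence.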 Type of experiment: functional.
Experiment [10] in a line: COV434 cell viability loss – plate reader, dry powder, SA7, cytotoxicity control for PAX8 inhibitor project, dose response (AID 743145). The experiment is classed as functional, cell-based.
Experiment [11] is described as follows: OV-90 cell viability loss – plate reader, dry powder, SA8, PAX8 inhibitor project, dose response (AID 743149). The experiment is classed as functional, cell-based.
A short description of experiment [12]: PAX8-dependent cell viability loss – plate reader, dry powder, dose response (AID 743049). Type of experiment: functional, cell-based.
Experiment [13] concerns the target Metabotropic glutamate receptor 5 (Rattus norvegicus, UniProt P31424). Nature of the experiment: Identification of a glycine sulfonamide based non-MPEP site positive allosteric potentiator (PAM) of mGlu5 (calcium_assay). Type of experiment: functional.
Experiment [14] addresses NAD-dependent protein deacylase sirtuin-5, mitochondrial (Homo sapiens, UniProt Q9NXA8). Nature of the experiment: blockers of sirtuin-5 peptide desuccinylation – biochemical, fluorescence imaging, cherry-pick, set 6, dose response (AID 720597).
For experiment [15], the target named is Potassium channel subfamily K member 3 (Homo sapiens, UniProt O14649). The experiment in a line: inhibition of human KCNK3 channel flux – CHO cells, FluxOR thallium flux, SAR follow-up (AID 652212). The experiment is classed as functional.
Potassium channel subfamily K member 3, sequence (O14649 whole entry): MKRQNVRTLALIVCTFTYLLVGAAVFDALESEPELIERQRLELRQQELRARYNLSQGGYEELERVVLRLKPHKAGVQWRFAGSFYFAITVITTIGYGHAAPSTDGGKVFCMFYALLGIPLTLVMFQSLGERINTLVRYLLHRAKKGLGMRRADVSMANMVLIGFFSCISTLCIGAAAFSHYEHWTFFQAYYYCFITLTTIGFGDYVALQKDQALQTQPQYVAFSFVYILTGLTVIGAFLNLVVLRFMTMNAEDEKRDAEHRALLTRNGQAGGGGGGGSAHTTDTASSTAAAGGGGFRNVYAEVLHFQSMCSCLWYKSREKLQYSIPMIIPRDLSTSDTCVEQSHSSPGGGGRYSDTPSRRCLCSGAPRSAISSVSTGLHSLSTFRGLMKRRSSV
Experiment [16] can be described thus: viability loss in HEK293 kidney cells – cell-based, cherry-picks, set 5, cytotoxicity control, dose response (AID 1053117). Type of experiment: functional.
A short description of experiment [17]: blockers of FN fibrillogenesis by fibroblasts – AH1F cells, Alexa488-FN fluorescence, cherry-picks, dose response (AID 1035475). The experiment is classed as functional, cell-based.
The target in experiment [18] is Endoplasmic reticulum aminopeptidase 1 (Homo sapiens, UniProt Q9NZ08). The experiment in a line: inhibition of human ERAP1 enzyme activity – biochemical, cherry-pick, set 2, plate reader, dose response (AID 743314).
Endoplasmic reticulum aminopeptidase 1, sequence (Q9NZ08 whole entry): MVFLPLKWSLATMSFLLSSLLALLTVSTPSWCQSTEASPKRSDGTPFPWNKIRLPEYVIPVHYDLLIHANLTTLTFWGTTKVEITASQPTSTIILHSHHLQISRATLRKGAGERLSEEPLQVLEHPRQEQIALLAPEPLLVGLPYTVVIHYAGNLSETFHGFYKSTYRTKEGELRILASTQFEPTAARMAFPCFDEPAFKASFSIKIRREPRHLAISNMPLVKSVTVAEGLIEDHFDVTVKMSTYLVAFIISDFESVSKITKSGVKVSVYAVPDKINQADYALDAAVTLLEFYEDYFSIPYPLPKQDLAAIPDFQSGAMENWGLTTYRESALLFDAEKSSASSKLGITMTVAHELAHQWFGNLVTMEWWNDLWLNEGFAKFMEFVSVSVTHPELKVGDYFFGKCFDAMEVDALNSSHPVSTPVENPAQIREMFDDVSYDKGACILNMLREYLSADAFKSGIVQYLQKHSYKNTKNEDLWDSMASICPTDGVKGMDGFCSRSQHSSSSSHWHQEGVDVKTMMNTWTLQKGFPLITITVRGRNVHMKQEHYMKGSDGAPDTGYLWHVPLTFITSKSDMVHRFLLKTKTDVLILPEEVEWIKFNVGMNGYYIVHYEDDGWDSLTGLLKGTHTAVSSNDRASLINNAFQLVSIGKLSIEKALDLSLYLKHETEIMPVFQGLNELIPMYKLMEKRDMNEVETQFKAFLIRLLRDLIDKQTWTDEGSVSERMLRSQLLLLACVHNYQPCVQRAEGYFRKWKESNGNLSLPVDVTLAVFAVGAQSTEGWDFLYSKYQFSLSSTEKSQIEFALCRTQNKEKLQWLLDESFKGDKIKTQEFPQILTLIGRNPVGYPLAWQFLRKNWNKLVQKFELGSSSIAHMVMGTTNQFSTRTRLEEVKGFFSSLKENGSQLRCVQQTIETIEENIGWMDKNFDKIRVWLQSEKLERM
A short description of experiment [19]: MITF Orthogonal Assay: SK-MEL-5 CTG Assay Measured in Cell-Based System Using Plate Reader - 2084-02_Inhibitor_Dose_DryPowder_Activity_Set7. The experiment is classed as functional.
The nature of experiment [20]: MITF: Counter assay: A375 proliferation Measured in Cell-Based System Using Plate Reader - 2084-03_Inhibitor_Dose_DryPowder_Activity_Set8. The experiment is classed as functional. The following applies: A-375.
Experiment [21] in a line: inhibitors of TRPM1-promoter reporter in SK-MEL-5 – cell-based, luciferase, dry powder, set 8, MITF inhibitor project, dose response (AID 624430). The experiment is classed as functional.
The nature of experiment [22]: kidney cell line viability loss – HEK293T, luminescence plate reader, powder samples, set 4, cytotoxicity control, dose response (AID 651863). Type of experiment: functional, cell-based. The note with it: HEK293.
Experiment [23] is described as follows: growth inhibition of yeast DHODH-expressing 3D7 parasites – SYBR Green, dry powder samples, dose response (AID 1159570).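 Note: parasite growth measured after 72 hours of compound exposure.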 The experiment is classed as functional, cell-based.
The nature of experiment [24]: toxicity to human HepG2 hepatoma cells – cell-based, plate reader, dry powder samples, cytotoxicity control, dose response (AID 1159569).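 Note: inhibitor potency with signal falling toward the positive control level.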 Type of experiment: functional.
A short description of experiment [25]: P. falciparum Dd2 growth inhibitors, dose response, SYBR Green, cherry-picked samples (AID 1159567). Type of experiment: functional, cell-based.
The nature of experiment [26]: Dd2 malaria parasite growth inhibition potency – SYBR Green, dry powder samples, dose response (AID 1159566).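 Note: potency for growth inhibition with lower SYBR green DNA signal.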 Type of experiment: functional, cell-based.
The nature of experiment [27]: toxicity to human hepatoma HepG2 cells – cell-based, cherry-picked samples, cytotoxicity control, dose response (AID 1159577). Type of experiment: functional.
The nature of experiment [28]: growth inhibition of PfATP4-mutant resistant parasites – NITD609-resistant line, SYBR Green, dry powder, dose response (AID 1159571).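 Note: parasites synchronized at ring stage by sorbitol before testing.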 Type of experiment: functional, cell-based.
Experiment [29] is described as follows: rise of 2N DNA cells, HeLa – IC50, dose response (AID 1117349). Type of experiment: functional, cell-based.
The nature of experiment [30]: cells. The note with it: INS-1E. The experiment is classed as functional, cell-based.
The nature of experiment [31]: rise of 4N DNA cells, HeLa – IC50, dose response (AID 1117351). Type of experiment: functional, cell-based.

NAD-dependent protein deacylase sirtuin-5, mitochondrial, sequence (Q9NXA8 whole entry): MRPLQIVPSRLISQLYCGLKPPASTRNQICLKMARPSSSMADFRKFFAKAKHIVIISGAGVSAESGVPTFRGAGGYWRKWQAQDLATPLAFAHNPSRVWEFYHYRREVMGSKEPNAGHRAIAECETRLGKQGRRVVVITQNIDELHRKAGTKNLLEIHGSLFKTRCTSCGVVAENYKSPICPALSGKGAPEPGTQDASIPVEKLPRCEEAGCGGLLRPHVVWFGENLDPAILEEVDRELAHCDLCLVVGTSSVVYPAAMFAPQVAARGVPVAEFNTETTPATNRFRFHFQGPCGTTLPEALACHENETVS
Metabotropic glutamate receptor 5, sequence (P31424 whole entry): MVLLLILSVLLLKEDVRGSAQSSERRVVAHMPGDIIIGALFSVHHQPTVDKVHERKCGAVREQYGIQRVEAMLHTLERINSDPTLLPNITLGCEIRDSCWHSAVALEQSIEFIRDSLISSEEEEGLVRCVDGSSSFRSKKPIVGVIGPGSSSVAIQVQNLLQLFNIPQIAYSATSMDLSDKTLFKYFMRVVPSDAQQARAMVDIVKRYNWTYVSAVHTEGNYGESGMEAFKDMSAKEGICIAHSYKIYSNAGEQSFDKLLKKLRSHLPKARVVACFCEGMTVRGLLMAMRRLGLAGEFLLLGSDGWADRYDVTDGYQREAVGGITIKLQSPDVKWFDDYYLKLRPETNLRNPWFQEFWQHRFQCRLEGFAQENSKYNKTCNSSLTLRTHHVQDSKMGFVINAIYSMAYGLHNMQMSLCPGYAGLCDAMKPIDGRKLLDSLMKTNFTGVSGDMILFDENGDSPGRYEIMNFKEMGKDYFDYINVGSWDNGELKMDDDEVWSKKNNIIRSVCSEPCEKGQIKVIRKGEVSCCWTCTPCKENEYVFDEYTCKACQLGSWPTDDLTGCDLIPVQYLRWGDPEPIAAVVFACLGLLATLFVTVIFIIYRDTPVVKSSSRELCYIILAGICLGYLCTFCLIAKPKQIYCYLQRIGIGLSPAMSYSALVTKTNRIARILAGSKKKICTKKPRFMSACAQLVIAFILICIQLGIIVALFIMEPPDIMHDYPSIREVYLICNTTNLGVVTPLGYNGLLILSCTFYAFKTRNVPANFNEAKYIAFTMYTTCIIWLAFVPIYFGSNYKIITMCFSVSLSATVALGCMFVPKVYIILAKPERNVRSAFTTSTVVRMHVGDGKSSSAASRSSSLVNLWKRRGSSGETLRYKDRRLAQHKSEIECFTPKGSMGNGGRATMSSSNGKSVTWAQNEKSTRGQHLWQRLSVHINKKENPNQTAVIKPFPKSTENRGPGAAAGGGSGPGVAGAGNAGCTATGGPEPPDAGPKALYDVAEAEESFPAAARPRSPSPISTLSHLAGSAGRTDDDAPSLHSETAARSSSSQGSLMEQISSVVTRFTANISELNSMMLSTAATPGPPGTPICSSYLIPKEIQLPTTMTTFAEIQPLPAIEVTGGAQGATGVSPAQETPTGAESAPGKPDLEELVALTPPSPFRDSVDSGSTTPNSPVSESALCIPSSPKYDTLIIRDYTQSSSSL

On to `COc1ccc(S(=O)(=O)Nc2ccc3c(c2)C(=O)N([C@H](C)CO)C[C@H](C)[C@@H](CN(C)S(=O)(=O)c2ccc(Cl)cc2)OCCCC[C@H](C)O3)cc1`, for which the AC50 (as a rule, the concentration giving half of the maximal activity seen) in experiment [1] was 7.7 µM (active); in experiment [2], 21.4 µM (active); in experiment [3] it was 16 µM (active); in experiment [4], 24.8 µM (active); in experiment [5], 51.9 µM (active); in [6], > 70 µM (inactive).

`N#C[C@H]1[C@H](c2ccc(C#CC3CCCC3)cc2)[C@@H](CO)N1C(=O)Nc1ccc(F)cc1`: the AC50 is 5.59 µM (active) in [1]; 7.21 µM (active) in experiment [7]; 32.1 µM (active) in [8]; 42.8 µM (active) in experiment [3]; 7.84 µM (active) in experiment [9]; 20.4 µM (active) in experiment [10]. Further, the AC50 in experiment [11] is 29 µM (active); in experiment [6] it was 27.2 µM (active); in [12] it was 19.1 µM (active).

As to `CC(C)(C)NC(=O)CN(c1cc(C(F)(F)F)ccc1Cl)S(C)(=O)=O`, the EC50 (as a rule, the concentration at which the effect is half-maximal) in [13] is > 30 µM (inactive).

For the molecule `C[C@H](CO)N1C[C@H](C)[C@H](CN(C)Cc2ccncc2)Oc2ncc(C#CCN(C)C)cc2C1=O`, in experiment [14], the AC50 was > 30 µM (inactive).

For the molecule `CCOc1ccccc1NC(=O)c1cccc(NC(=O)c2ccc(OC)cc2)c1`, the IC50 – broadly, the concentration at which inhibition is half-maximal – in experiment [15] is 300 nM (active).

With `O=S(=O)(c1cccc(F)c1)N1CC[C@H]2[C@H](CO)Nc3ccc(-c4cccc(F)c4)cc3[C@H]21`, the figures for the AC50 in [16] and in experiment [17] were > 52 µM (inactive) and 41.9 µM (active), respectively.

With `CCNC(=O)[C@@H]1[C@@H](CO)[C@@H]2Cn3c(ccc(/C=C/c4ccccc4)c3=O)[C@H]1N2C(=O)C1CCCC1`, the AC50 in [18] is 9.24 µM (active).

For `CN1CCN(C2=C(Nc3ccc(I)cc3)C(=O)c3ccccc3C2=O)CC1`, the values for the AC50 in experiment [19], in experiment [20] and in [21] were 8.33 µM (active), 26 µM (active) and 7.32 µM (active), respectively.

In the case of `CCOC(=O)C(C(=O)OCC)c1cc(CNS(=O)(=O)c2ccc(C)cc2C)c2ccccc2n1`, the AC50 in experiment [22] is > 52 µM (inactive).

For the molecule `Cc1cccc(S(=O)(=O)N2C[C@@H]3N[C@H](C2)[C@H]3c2ccc(-c3ccncc3)cc2)c1`, the AC50 is 2.12 µM (active) in [23]; 41.5 µM (active) in experiment [24]; 1.84 µM (active) in experiment [25]; 1.48 µM (active) in experiment [26]; > 39 µM (inactive) in [27]; 3.58 µM (active) in experiment [28].

In the case of `Cc1ccccc1C(OCCN(C)C)c1ccccc1` (centres undefined) [ORPHENADRINE CITRATE], the IC50 was > 10 µM (inactive) in experiment [29], > 33.3 µM (inactive) in experiment [30] and > 10 µM (inactive) in [31].
